Our source for the TGI and GI50 values is PubChem BioAssay (NCI).

What all share (test): NCI anticancer screen, dose series, 48 h
The subject of experiment [1] is COLO 205 colon.
For experiment [2], the system named is M14 melanoma.
For experiment [3], the system named is MOLT-4 leukemia.
The subject of experiment [4] is RXF 393 renal.
For experiment [5], the system named is SK-OV-3 ovarian.
Experiment [6] has as its system SNB-19 CNS.
Experiment [7] concerns SW-620 colon.
Experiment [8] concerns UACC-62 melanoma.
In experiment [9] the test system is OVCAR-5 ovarian.

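The compound was tested at five concentrations on cells cultured in 96-well plates, with a 48-hour exposure period. GI50 marks 50% less growth. Definition used: TGI = concentration required for complete inhibition of growth.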

In the case of `CC(C)c1ccc(C(c2ccc(OCC(=O)O)cc2)c2ccc(C(C)C)cc(=O)c2O)c(O)c(=O)c1`, the TGI in experiment [1] is greater than 100 µM; in experiment [2], 11 µM; in [3], 30.7 µM; in [4], 27.2 µM; in experiment [5], 41.9 µM; in experiment [6], 28 µM. Besides, the TGI in experiment [7] was greater than 100 µM; in experiment [8], 20.7 µM.
On to `CCCCOC(=O)NC(=O)c1cn(C2CCCCC2)c(=O)[nH]c1=O`, for which the TGI in experiment [1] is greater than 100 µM; in experiment [2], greater than 100 µM; in experiment [3] it was greater than 100 µM; in [9] it was greater than 100 µM; in experiment [5], 41.4 µM; in experiment [6] it was 69.3 µM. The TGI in [7] and in experiment [8] was greater than 100 µM each time.
On to `CC(=O)O.[Au].c1ccc([PH+](c2ccccc2)c2ccccc2)cc1`, for which the GI50 is 1.99 µM in experiment [1]; 1.39 µM in experiment [2]; 1.61 µM in experiment [3]; 14.4 µM in experiment [9]; 1.42 µM in [4]; 15.8 µM in experiment [5]. The figures for the GI50 in experiment [6] and in [8] were 4.11 µM and 1.47 µM, respectively. Moreover, the TGI in [1] stood at 4.73 µM; in [2], 2.77 µM; in experiment [3], 4.17 µM; in [9], 28.6 µM; in [4] it was 2.86 µM; in experiment [5], 29.2 µM. Besides, the TGI in [6] came out at 15.8 µM; in experiment [8] it was 4.03 µM.
As to `c1cc2c(ncc3cscc32)s1`, the TGI in [1], in experiment [2], in experiment [3], in experiment [9], in experiment [4] and in experiment [6] was greater than 100 µM in each case. Further, the TGI in [7] is greater than 100 µM; in [8], greater than 31.6 µM.
For the molecule `O=C(Nc1ccc(Cl)cc1Cl)C(=O)C(C(=O)c1ccncc1)C1OC(=O)c2ccccc21` (stereo unspecified), the TGI in experiment [1], in experiment [2], in experiment [3], in experiment [9], in experiment [4] and in experiment [5] was greater than 100 µM throughout. Further, the TGI in [6], in experiment [7] and in experiment [8] was greater than 100 µM in each case.
With `CC(C)c1cc2c(O)c(c1)Cc1cc(C(C)C)cc(c1O)Cc1cc(C(C)C)cc(c1O)Cc1cc(C(C)C)cc(c1O)C2`, the TGI in experiment [1], in experiment [3], in experiment [9], in experiment [4], in experiment [5] and in [6] was greater than 100 µM each time. Also, the TGI in experiment [7] and in [8] was greater than 100 µM each time.
As for `CC(=O)N1C/C(=C\c2ccc(N(C)C)cc2)C(=O)/C(=C/c2ccc(N(C)C)cc2)C1`, the TGI in experiment [2], in experiment [3], in experiment [9], in [4], in experiment [5] and in experiment [6] was greater than 100 µM throughout. Further, the TGI in experiment [7] and in experiment [8] was greater than 100 µM each time.
As to `COC(=O)c1cc(C)c(C)c2c1NC(=O)CNC2=O`, the TGI in experiment [1], in experiment [2], in [3], in experiment [4], in [7] and in [8] was greater than 100 µM throughout.
In the case of `COC(C(O)c1ccc2c(c1)OCO2)P(=O)(c1ccccc1)c1ccccc1` (stereo unspecified), the TGI in experiment [2], in experiment [3], in experiment [9], in [4], in experiment [6] and in [7] was greater than 100 µM throughout. For the same molecule, the TGI in [8] was greater than 100 µM.
For `Fc1ccc(C2SCc3nc4ccccc4n32)cc1Cl` (stereo unspecified), the TGI in experiment [1] is 28.6 µM; in experiment [3], 69.9 µM; in [9] it was 66.6 µM; in experiment [4], 50 µM; in experiment [5], 49.5 µM; in experiment [6], greater than 100 µM. In addition, the TGI was greater than 100 µM in experiment [7] and 25.6 µM in experiment [8].
Turning to `C=C1C(=O)O[C@H]2[C@H]1CC/C(COC(=O)c1cc3ccccc3s1)=C\CC[C@@]1(C)O[C@@H]21`, the GI50 in experiment [1] is 1.71 µM; in experiment [2], 1.75 µM; in [3], 1.88 µM; in experiment [9], 2.02 µM; in [4] it was 1.23 µM; in [5], 13.9 µM. Also, the GI50 in experiment [6] was 2.09 µM; in [7] it was 0.518 µM; in [8], 1.85 µM. In addition, the TGI in [1] was 3.48 µM; in experiment [2], 4.24 µM; in experiment [3], 7.69 µM; in [9], 4.35 µM; in experiment [4], 2.66 µM; in experiment [5], 26.8 µM. The TGI in [6] was determined as 4.97 µM; in experiment [7], 2.97 µM; in [8], 3.79 µM.
As to `Cc1ccc(-c2cc(=O)c3cc(C)c(C)c(C(=O)O)c3o2)cc1C`, the TGI in experiment [1], in experiment [2], in [3], in experiment [9], in [4] and in [5] was greater than 100 µM each time. Further, the TGI in experiment [6], in experiment [7] and in experiment [8] was greater than 100 µM each time.
`CCc1ccc(Nc2ccc([N+](=O)[O-])cc2[N+](=O)[O-])cc1`: the TGI in experiment [2], in experiment [3], in experiment [9], in [4], in experiment [5] and in experiment [7] was greater than 100 µM throughout. Besides, the TGI in experiment [8] was greater than 100 µM.
For `c1cc[c]([Pb]([c]2ccccc2)[c]2ccccc2)cc1`, the GI50 in [1] was 14.8 µM; in [2] it was 14.2 µM; in experiment [3] it was 15.7 µM; in [9] it was 11 µM; in [5], 11.2 µM; in experiment [6] it was 16.5 µM. Further, the GI50 in [7] is 21.2 µM; in experiment [8], 6.1 µM. In addition, the TGI worked out at 30.3 µM in experiment [1]; 47.4 µM in [2]; 71.7 µM in experiment [3]; 34.9 µM in [9]; 38.2 µM in experiment [5]; 38.7 µM in experiment [6]. In addition, the TGI stood at 57.1 µM in experiment [7] and 19.8 µM in experiment [8].
Consider `COc1ccc(/C(Cl)=C(\C=O)c2ccc([N+](=O)[O-])cc2)cc1`, for which the TGI in experiment [1] was 40.4 µM; in experiment [2], greater than 74.6 µM; in [3] it was 7.24 µM; in experiment [9] it was greater than 100 µM; in experiment [4], 38.6 µM; in [5], 76.7 µM. Further, the TGI is greater than 31.6 µM in experiment [6], greater than 49.1 µM in [7] and 33.1 µM in experiment [8].
On to `O=C(/C=C/c1c(O)ccc2ccccc12)c1ccccc1`, for which the TGI in experiment [1], in experiment [2], in experiment [3], in experiment [9], in experiment [4] and in experiment [5] was greater than 100 µM each time. Also, the values for the TGI in [6], in experiment [7] and in experiment [8] were greater than 100 µM, 83.7 µM and greater than 100 µM, respectively.
As to `N.N.O=C([O-])P(=O)([O-])[O-].[Na+].[Pt+4]`, the GI50 in [1], in experiment [2], in experiment [3], in experiment [4], in experiment [5] and in experiment [6] was greater than 100 µM each time. Further, the GI50 in [7] and in [8] was greater than 100 µM each time. In addition, the TGI in experiment [1], in experiment [2], in experiment [3], in [4], in [5] and in [6] was greater than 100 µM each time. Further, the TGI in experiment [7] and in experiment [8] was greater than 100 µM each time.
On to `Cc1[nH]c2ccccc2c1C1Cc2ccccc2N1C(=O)/C(Cl)=C/c1ccccc1` (stereo unspecified), for which the TGI in [1] is greater than 100 µM; in experiment [2], greater than 100 µM; in experiment [3], greater than 100 µM; in experiment [9], greater than 100 µM; in experiment [4], 89 µM; in experiment [5], greater than 100 µM. The TGI in experiment [6], in [7] and in experiment [8] was greater than 100 µM throughout.
Regarding `C/C=C1/C(=C/c2[nH]c(/C=c3\[nH]/c(=C/C4=NC(=O)C(CC)=C4C)c(C)c3CCC(=O)O)c(CCC(=O)O)c2C)NC(=O)C1C` (stereo unspecified), the GI50 in [1], in [2], in [3], in experiment [9], in experiment [4] and in experiment [6] was greater than 150 µg/mL each time. In addition, the GI50 in experiment [7] and in experiment [8] was greater than 150 µg/mL each time. The TGI in [1], in [2], in [3], in experiment [9], in experiment [4] and in [6] was greater than 150 µg/mL throughout. The TGI in [7] and in experiment [8] was greater than 150 µg/mL each time.
For the molecule `CNc1nc(N)c(N=O)c(Nc2ccc(Br)cc2)n1`, the TGI in experiment [1], in experiment [3], in experiment [9], in experiment [4], in experiment [6] and in [7] was greater than 100 µM each time. This molecule also gave a TGI in [8] greater than 100 µM.
With `Cc1nc2ccccc2c(=O)n1-c1ccccc1F`, the TGI in experiment [1], in [2], in [3], in experiment [9], in experiment [4] and in experiment [5] was greater than 100 µM throughout. In addition, the TGI in [6], in experiment [7] and in experiment [8] was greater than 100 µM in each case.
`COC1=CC2(C=CC1=O)c1cc(OC)c(OC)cc1CCN2C(=O)c1ccccc1` (stereo unspecified): the TGI in experiment [1], in experiment [2], in [3], in experiment [4], in experiment [5] and in experiment [6] was greater than 100 µM in each case. Also, the TGI in [7] and in experiment [8] was greater than 100 µM in each case.
Take `CCCCCCC(=O)C/C(=N/NC(N)=S)C(=O)NC1C2CC3CC(C2)CC1C3` (stereo unspecified): the TGI in experiment [1], in experiment [2], in [3], in experiment [9], in experiment [4] and in experiment [6] was greater than 100 µM in each case. Further, the TGI in experiment [7] and in experiment [8] was greater than 100 µM each time.
For `COc1ccc(CNc2nc3cc(C(F)(F)F)ccc3nc2C)cc1OC`, the TGI was greater than 100 µM in [1]; 44.6 µM in experiment [2]; 45.7 µM in experiment [3]; greater than 100 µM in experiment [9]; greater than 100 µM in experiment [5]; greater than 100 µM in experiment [6]. In addition, the TGI in experiment [7] and in experiment [8] was greater than 100 µM throughout.
As to `COc1ccc(/C=C\c2cc(OC)c(OC)c(OC)c2)cc1OC(=O)NCCN(C)C`, the GI50 in [1] was 0.187 µM. Moreover, the TGI in experiment [1] is 4.69 µM; in experiment [2], greater than 35 µM; in [3], less than 0.0494 µM; in experiment [4] it was less than 0.0001 µM; in experiment [6] it was greater than 100 µM; in experiment [8], greater than 25.7 µM.
For the molecule `COc1cc2c(c(OC)c1)C1(CC(CC#N)C2)SCCS1` (stereo unspecified), the TGI in experiment [1], in experiment [2], in experiment [3], in experiment [4], in experiment [5] and in experiment [6] was greater than 100 µM in each case. Moreover, the TGI in [7] and in experiment [8] was greater than 100 µM each time.
Regarding `CC1=N/C(=C\c2cccc([N+](=O)[O-])c2)C(=O)O1`, the TGI in experiment [1], in experiment [2], in [3], in experiment [9], in experiment [4] and in experiment [6] was greater than 100 µM each time. Further, the TGI in experiment [7] and in [8] was greater than 100 µM each time.
Consider `CN(C)C(c1ccccc1)C(O)c1ccccc1` (stereo unspecified), for which the TGI in experiment [1], in [2], in experiment [3], in experiment [4], in experiment [5] and in [6] was greater than 100 µM in each case. In addition, the TGI in [7] and in experiment [8] was greater than 100 µM each time.
